Experimental data: US20230107216A1, “PANTETHEINE DERIVATIVES AND USES THEREOF” (Comet Therapeutics, Inc., priority 2018, published 2023)
Read-outs that look alike come from different tables or passages of the source.

How the values were obtained:
[1] = system: Propionic Acidemia (PA) primary fibroblasts GM00371; test: Mitochondrial respiration, XFe96 Extracellular Flux Analyzer (OCR/ECAR), PA fibroblasts GM00371; format: cell-based; details: Homo sapiens, Fibroblast
[2] = system: primary fibroblasts (healthy controls and PA, MMA, BCKDK, PDH, VLCAD, LS, PC, GA, VLCFA, KSS, FXN, HD); test: Measurement of ROS (H2DCFDA) in primary fibroblasts; format: cell-based, human; details: Homo sapiens, procedure Example 812
Procedure, shortened: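 Patient and healthy-control primary fibroblasts switched to supplemented DMEM 24 h before assay, then treated with compound (10 μM) plus H2DCFDA (22 μM) for 2 h (PA, MMA lines) or 24 h (other lines). Kinetic fluorescence at 492/527 nm over 60 min; only live cells analysed.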

HepG2 cells = test: Mitochondrial membrane potential (MITO-ID MP detection Kit); format: cell-based; details: Homo sapiens, 168 h, 7 days; for inhibition at 10 µM / inhibition at 50 µM: read-out: % decrease in Mitochondrial Membrane Potential; for activation at 10 µM: read-out: % increase in Mitochondrial Membrane Potential
Procedure, shortened: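 Cells plated at 160000 cells/mL in DMEM with 10% FBS and 1% Pen-Strep, adhered overnight at 37° C., 5% CO2. Exposure to test compounds (50-10 μM) or 0.2% DMSO for 7 days without media change; membrane potential measured with MITO-ID MP detection kit per manufacturer.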

[3] = assay condition D (1 mM glucose, 10% FBS), read-out: Increase in Maximal Respiratory Capacity AUC
[4] = Fibroblast, BCKD GM00612, Assay Condition A, read-out: Decreased ROS by at least 10%
[5] = Fibroblast, BCKD GM00649, Assay Condition C, read-out: Decreased ROS by at least 30%
[6] = FXN GM04078, Assay Condition C, read-out: Decreased ROS by at least 10%
[7] = FXN GM04078, Assay Condition C, read-out: Decreased ROS by at least 30%
[8] = Fibroblast, BCKD GM00649, Assay Condition C, read-out: Decreased ROS by at least 10%
[9] = Fibroblast, PDH GM01503, Assay Condition C, read-out: Decreased ROS by at least 10%
[10] = Fibroblast, PDH GM01503, Assay Condition C, read-out: Decreased ROS by at least 30%
[11] = Fibroblast, VLCAD GM17475, Assay Condition C, read-out: Decreased ROS by at least 10%
[12] = assay condition C (10 mM glucose, 10% FBS), read-out: Increase in Maximal Respiratory Capacity AUC
[13] = assay condition A (10 mM glucose, 2 mM L-glutamine, 1 mM pyruvate, 10% FBS), read-out: Increase in Maximal Respiratory Capacity AUC
[14] = Fibroblast, VLCAD GM17475, Assay Condition C, read-out: Decreased ROS by at least 30%
[15] = Fibroblast, VLCFA GM13262, Assay Condition C, read-out: Decreased ROS by at least 30%
[16] = assay condition D (1 mM glucose, 10% FBS), read-out: Increase in Spare Capacity AUC
[17] = assay condition A (10 mM glucose, 2 mM L-glutamine, 1 mM pyruvate, 10% FBS), read-out: Increase in Spare Capacity AUC

With `CC(C)(CO)[C@@H](O)C(=O)NCCC(=O)NCCSC(=O)CC(=O)CCC(=O)O` [Compound 2, 6-[(2-[3-[(2R)-2,4-dihydroxy-3,3-dimethylbutanamido]propanamido]ethyl)sulfanyl]-4,6-dioxohexanoic acid] the activation at 50 µM [1, 3] was ≥ 10%, the inhibition at 10 µM [2, 4] was ≥ 10% and the inhibition at 10 µM [2, 5] was ≥ 30%. The inhibition at 10 µM [2, 6] was ≥ 10% and the inhibition at 10 µM [2, 7] was ≥ 30%.
`COC(=O)CCC(=O)SCCNC(=O)CCNC(=O)[C@H](O)C(C)(C)CO` [Compound 4, Methyl (R)-4-((2-(3-(2,4-dihydroxy-3,3-dimethylbutanamido)propanamido)ethyl)thio)-4-oxobutanoate] was tested, and the inhibition at 10 µM (HepG2 cells) was > 30%, the inhibition at 10 µM [2, 8] was ≥ 10% and the inhibition at 10 µM [2, 5] was ≥ 30%.
In the case of `C[C@@H](O)CC(=O)SCCNC(=O)CCNC(=O)[C@H](O)C(C)(C)CO` [Compound 38, S-2-{3-[(R)-2,4-dihydroxy-3,3-dimethylbutyrylamino]propionylamino} ethyl (R)-3-hydroxybutanethioate], the inhibition at 50 µM (HepG2 cells) is reported as > 30%, the inhibition at 10 µM [2, 9] is reported as ≥ 10% and the inhibition at 10 µM [2, 10] is reported as ≥ 30%. For the same compound, the inhibition at 10 µM [2, 6] was ≥ 10% and the inhibition at 10 µM [2, 7] was ≥ 30%.
In the case of `CC(C)(CO)[C@@H](O)C(=O)NCCC(=O)NCCSC(=O)CC(O)C(=O)O` (stereo partly shown) [Compound 39], the inhibition at 50 µM (HepG2 cells) is reported as > 50% and the inhibition at 10 µM [2, 11] is reported as ≥ 10%.
In the case of `COC(=O)/C=C/C(=O)SCCNC(=O)CCNC(=O)[C@H](O)C(C)(C)COP(=O)(O)O` [Compound 73, methyl (R,E)-4-((2-(3-(2-hydroxy-3,3-dimethyl-4-(phosphonooxy)butanamido)propanamido)ethyl)thio)-4-oxobut-2-enoate], the inhibition at 50 µM (HepG2 cells) is reported as > 30% and the inhibition at 10 µM ([2]; Fibroblast, NPC1 GM22879, Assay Condition C, read-out: Decreased ROS by at least 10%) is reported as ≥ 10%.
For `C/C=C/C(=O)SCCNC(=O)CCNC(=O)[C@H](O)C(C)(C)COP(=O)(O)O` [Compound 82, (R)—S-(2-(3-(2-hydroxy-3,3-dimethyl-4-(phosphonooxy)butanamido)propanamido)ethyl) (E)-but-2-enethioate], the activation at 10 µM (HepG2 cells) was 10% and the inhibition at 50 µM (HepG2 cells) was > 20%.
With `CC(=O)OCC(C)(C)[C@@H](O)C(=O)NCCC(=O)NCCSC(=O)CC(=O)CCC(=O)O` [Compound 140, 6-[(2-[3-[(2R)-4-(acetyloxy)-2-hydroxy-3,3-dimethylbutanamido]propanamido]ethyl)sulfanyl]-4,6-dioxohexanoic acid] the activation at 50 µM [1, 12] was ≥ 10%, the inhibition at 10 µM ([2]; Fibroblast, Leigh GM13411, Assay Condition C, read-out: Decreased ROS by at least 30%) was ≥ 30% and the inhibition at 10 µM [2, 9] was ≥ 10%.
`CC(C)(CO)[C@@H](O)C(=O)NCCC(=O)NCCSC(=O)CCCN` [Compound 370, (2R)—N-[2-([2-[(4-aminobutanoyl)sulfanyl]ethyl]carbamoyl)ethyl]-2,4-dihydroxy-3,3-dimethylbutanamide] was tested, and the activation at 10 µM [1, 13] was ≥ 10%, the activation at 50 µM [1, 12] was ≥ 10% and the activation at 10 µM [1, 3] was ≥ 10%.
`CCCCCCC(=O)SCCNC(=O)CCNC(=O)[C@H](O)C(C)(C)CO` [Compound 372, (2R)—N-(2-[[2-(heptanoylsulfanyl)ethyl]carbamoyl]ethyl)-2,4-dihydroxy-3,3-dimethylbutanamide] was tested, and the activation at 50 µM [1, 12] was ≥ 10%, the inhibition at 10 µM [2, 6] was ≥ 10% and the inhibition at 10 µM [2, 7] was ≥ 30%.
`CCC(=O)CC(=O)SCCNC(=O)CCNC(=O)[C@H](O)C(C)(C)CO` [Compound 382, (2R)-2,4-dihydroxy-3,3-dimethyl-N-[2-([2-[(3-oxopentanoyl)sulfanyl]ethyl]carbamoyl)ethyl]butanamide] was tested, and the activation at 10 µM [1, 3] was ≥ 10%, the inhibition at 10 µM [2, 9] was ≥ 10% and the inhibition at 10 µM [2, 14] was ≥ 30%. For the same compound, the inhibition at 10 µM [2, 6] was ≥ 10% and the inhibition at 10 µM [2, 7] was ≥ 30%.
With `CC(O)CC(O)CC(=O)SCCNC(=O)CCNC(=O)[C@H](O)C(C)(C)CO` (stereo partly shown) [Compound 400] the activation at 10 µM (HepG2 cells) was > 20%, the inhibition at 10 µM [2, 8] was ≥ 10% and the inhibition at 10 µM [2, 5] was ≥ 30%. The inhibition at 10 µM [2, 6] was ≥ 10% and the inhibition at 10 µM [2, 7] was ≥ 30%.
`CC(O)CC(O)CC(O)CC(=O)SCCNC(=O)CCNC(=O)[C@H](O)C(C)(C)CO` (stereo partly shown) [Compound 401] was tested, and the activation at 10 µM (HepG2 cells) was > 10%, the inhibition at 10 µM [2, 11] was ≥ 10% and the inhibition at 10 µM [2, 14] was ≥ 30%.
With `COC(=O)C(C)C(=O)SCCNC(=O)CCNC(=O)[C@H](O)C(C)(C)CO` (stereo partly shown) [Compound 405] the inhibition at 50 µM (HepG2 cells) was > 50%, the inhibition at 10 µM [2, 8] was ≥ 10% and the inhibition at 10 µM [2, 5] was ≥ 30%.
In the case of `COC(=O)CC(C(C)=O)C(=O)SCCNC(=O)CCNC(=O)[C@H](O)C(C)(C)CO` (stereo partly shown) [Compound 410], the activation at 50 µM [1, 3] is reported as ≥ 10%, the inhibition at 10 µM [2, 5] is reported as ≥ 30% and the inhibition at 10 µM ([2]; Fibroblast, MMA Tsi 5224, Assay Condition A, read-out: Decreased ROS by at least 10%) is reported as ≥ 10%. For the same compound, the inhibition at 10 µM [2, 6] was ≥ 10% and the inhibition at 10 µM [2, 7] was ≥ 30%.
In the case of `CC(=O)SCCNC(=O)CCNC(=O)[C@H](O)C(C)(C)COC(=O)[C@@H](N)Cc1ccc(O)c(O)c1` [Compound 498, (3R)-3-[(2-[[2-(acetylsulfanyl)ethyl]carbamoyl]ethyl)carbamoyl]-3-hydroxy-2,2-dimethylpropyl (2S)-2-amino-3-(3,4-dihydroxyphenyl)propanoate], the activation at 10 µM [1, 3] is reported as ≥ 10%.
With `CC(=O)SCCNC(=O)CCNC(=O)[C@H](O)C(C)(C)COC(=O)[C@H](C)N` [Compound 502, (3R)-3-[(2-[[2-(acetylsulfanyl)ethyl]carbamoyl]ethyl)carbamoyl]-3-hydroxy-2,2-dimethylpropyl (2S)-2-aminopropanoate] the activation at 10 µM [1, 13] was ≥ 30% and the activation at 50 µM [1, 13] was ≥ 10%.
With `CC(C)(CO)[C@@H](O)C(=O)NCCC(=O)NCCSC(=O)C1CCC(=O)N1` (stereo partly drawn) [Compound 1227, S-2-{3-[(R)-2,4-dihydroxy-3,3-dimethylbutyrylamino]propionylamino}ethyl 5-oxo-2-pyrrolidinecarbothioate] the inhibition at 10 µM (HepG2 cells) was > 30%.
With `CCC(C)C(=O)CC(=O)SCCNC(=O)CCNC(=O)[C@H](O)C(C)(C)CO` (stereo partly drawn) [Compound 1240, S-(2-(3-((R)-2,4-dihydroxy-3,3-dimethylbutanamido)propanamido)ethyl) 4-methyl-3-oxohexanethioate] the inhibition at 50 µM (HepG2 cells) was > 50%, the inhibition at 10 µM [2, 4] was ≥ 10% and the inhibition at 10 µM [2, 15] was ≥ 30%. The inhibition at 10 µM [2, 6] was ≥ 10% and the inhibition at 10 µM [2, 7] was ≥ 30%.
With `CC1(CC(=O)SCCNC(=O)CCNC(=O)[C@H](O)C(C)(C)CO)OCCO1` [Compound 1252, (R)—S-(2-(3-(2,4-dihydroxy-3,3-dimethylbutanamido)propanamido)ethyl)-2-(2-methyl-1,3-dioxolan-2-yl)ethanethioate] the activation at 10 µM (HepG2 cells) was > 20%, the inhibition at 10 µM [2, 9] was ≥ 10% and the inhibition at 10 µM [2, 10] was ≥ 30%.
With `COC(=O)CCC(=O)SCCNC(=O)CCNC(=O)[C@H](OC(=O)CN)C(C)(C)CO` [Compound 1294, methyl 4-[(2-[3-[(2R)-2-[(2-aminoacetyl)oxy]-4-hydroxy-3,3-dimethylbutanamido]propanamido]ethyl)sulfanyl]-4-oxobutanoate] the activation at 10 µM [1, 16] was ≥ 30%.
In the case of `COC(=O)CCC(=O)SCCNC(=O)CCNC(=O)[C@H](OC(=O)CNC(C)=O)C(C)(C)CO` [Compound 1298, methyl 4-[(2-[3-[(2R)-2-[(2-acetamidoacetyl)oxy]-4-hydroxy-3,3-dimethylbutanamido]propanamido]ethyl)sulfanyl]-4-oxobutanoate], the activation at 10 µM [1, 17] is reported as ≥ 30%, the activation at 50 µM [1, 17] is reported as ≥ 50% and the activation at 10 µM [1, 16] is reported as ≥ 30%. The activation at 50 µM [1, 3] was ≥ 10%.
`CC(C)(COC(=O)CCC(=O)O)[C@@H](O)C(=O)NCCC(=O)NCCS` [Compound 1310, (R)-4-(3-hydroxy-4-((3-((2-mercaptoethyl)amino)-3-oxopropyl)amino)-2,2-dimethyl-4-oxobutoxy)-4-oxobutanoic acid] was tested, and the activation at 10 µM (HepG2 cells) was 20%, the inhibition at 50 µM (HepG2 cells) was > 30% and the inhibition at 10 µM [2, 4] was ≥ 10%. The inhibition at 10 µM [2, 15] was ≥ 30%.
